We go through six molecules from US20090227607A1, “DEAZAPURINES USEFUL AS INHIBITORS OF JANUS KINASES” (priority 2006, published 2009).

The structures appear in SMILES notation.

The target of one assay is T1, JAK3 (Homo sapiens, UniProt P52333).
T1 sequence (P52333 1-1124): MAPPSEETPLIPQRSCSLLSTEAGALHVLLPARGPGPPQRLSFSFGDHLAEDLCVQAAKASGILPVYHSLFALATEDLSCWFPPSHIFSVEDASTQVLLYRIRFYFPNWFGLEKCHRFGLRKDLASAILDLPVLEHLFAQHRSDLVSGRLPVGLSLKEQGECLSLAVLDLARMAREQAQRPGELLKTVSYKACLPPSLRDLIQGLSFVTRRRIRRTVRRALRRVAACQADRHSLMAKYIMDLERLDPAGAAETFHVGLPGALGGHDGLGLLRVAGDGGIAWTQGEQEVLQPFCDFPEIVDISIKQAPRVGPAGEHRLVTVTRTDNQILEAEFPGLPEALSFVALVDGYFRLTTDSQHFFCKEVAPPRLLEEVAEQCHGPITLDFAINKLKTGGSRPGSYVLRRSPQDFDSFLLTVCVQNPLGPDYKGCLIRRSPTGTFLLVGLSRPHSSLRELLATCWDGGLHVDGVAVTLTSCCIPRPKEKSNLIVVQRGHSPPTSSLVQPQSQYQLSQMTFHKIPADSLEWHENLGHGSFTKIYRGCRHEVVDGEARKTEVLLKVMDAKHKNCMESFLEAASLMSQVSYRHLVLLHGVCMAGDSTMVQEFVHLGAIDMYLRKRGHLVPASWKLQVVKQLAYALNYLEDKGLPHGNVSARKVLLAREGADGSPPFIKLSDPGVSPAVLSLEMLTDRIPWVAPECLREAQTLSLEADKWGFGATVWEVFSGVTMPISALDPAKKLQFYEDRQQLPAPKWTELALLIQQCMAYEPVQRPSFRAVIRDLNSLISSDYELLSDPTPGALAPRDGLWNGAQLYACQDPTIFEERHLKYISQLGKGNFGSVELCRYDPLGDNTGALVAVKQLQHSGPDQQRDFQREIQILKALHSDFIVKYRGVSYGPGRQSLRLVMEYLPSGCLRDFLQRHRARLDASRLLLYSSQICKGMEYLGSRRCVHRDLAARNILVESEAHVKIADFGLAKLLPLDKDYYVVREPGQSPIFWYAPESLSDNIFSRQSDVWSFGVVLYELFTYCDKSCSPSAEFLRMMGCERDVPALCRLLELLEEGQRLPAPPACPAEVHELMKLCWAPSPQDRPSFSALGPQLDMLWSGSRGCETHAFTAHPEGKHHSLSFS
The assay is described as follows: JAK3 Inhibition Assay. Particulars: 1 μM poly(Glu)4Tyr, 5 μM ATP, 1 nM JAK3, 25° C.; read-out: JAK3 enzyme inhibition data (Ki). The format is biochemical. In outline:
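Radiometric JAK3 (1 nM) reaction with 5 μM [33P]ATP and 1 μM poly(Glu)4Tyr in HEPES pH 7.4 buffer, run for 20 min at 25 °C. Reactions were stopped with TCA and filter-captured, and 33P incorporation was counted; values reported as Ki.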

A further assay deals with JAK-2 enzyme (Homo sapiens, UniProt O60674). Description: JAK2 Inhibition Assay. Particulars: 15 μM poly(Glu)4Tyr, 12 μM ATP, 25° C. It counts as biochemical. In outline:
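JAK2 kinase in HEPES pH 7.4 buffer with MgCl2, DTT, NaCl and BSA; final 15 μM poly(Glu)4Tyr and 12 μM [33P]ATP. Enzyme added to start, 20 min at 25 °C, TCA stop, filter capture and scintillation count of 33P incorporation; Ki values.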

JAK-2 enzyme, sequence (O60674 whole entry, species assumed): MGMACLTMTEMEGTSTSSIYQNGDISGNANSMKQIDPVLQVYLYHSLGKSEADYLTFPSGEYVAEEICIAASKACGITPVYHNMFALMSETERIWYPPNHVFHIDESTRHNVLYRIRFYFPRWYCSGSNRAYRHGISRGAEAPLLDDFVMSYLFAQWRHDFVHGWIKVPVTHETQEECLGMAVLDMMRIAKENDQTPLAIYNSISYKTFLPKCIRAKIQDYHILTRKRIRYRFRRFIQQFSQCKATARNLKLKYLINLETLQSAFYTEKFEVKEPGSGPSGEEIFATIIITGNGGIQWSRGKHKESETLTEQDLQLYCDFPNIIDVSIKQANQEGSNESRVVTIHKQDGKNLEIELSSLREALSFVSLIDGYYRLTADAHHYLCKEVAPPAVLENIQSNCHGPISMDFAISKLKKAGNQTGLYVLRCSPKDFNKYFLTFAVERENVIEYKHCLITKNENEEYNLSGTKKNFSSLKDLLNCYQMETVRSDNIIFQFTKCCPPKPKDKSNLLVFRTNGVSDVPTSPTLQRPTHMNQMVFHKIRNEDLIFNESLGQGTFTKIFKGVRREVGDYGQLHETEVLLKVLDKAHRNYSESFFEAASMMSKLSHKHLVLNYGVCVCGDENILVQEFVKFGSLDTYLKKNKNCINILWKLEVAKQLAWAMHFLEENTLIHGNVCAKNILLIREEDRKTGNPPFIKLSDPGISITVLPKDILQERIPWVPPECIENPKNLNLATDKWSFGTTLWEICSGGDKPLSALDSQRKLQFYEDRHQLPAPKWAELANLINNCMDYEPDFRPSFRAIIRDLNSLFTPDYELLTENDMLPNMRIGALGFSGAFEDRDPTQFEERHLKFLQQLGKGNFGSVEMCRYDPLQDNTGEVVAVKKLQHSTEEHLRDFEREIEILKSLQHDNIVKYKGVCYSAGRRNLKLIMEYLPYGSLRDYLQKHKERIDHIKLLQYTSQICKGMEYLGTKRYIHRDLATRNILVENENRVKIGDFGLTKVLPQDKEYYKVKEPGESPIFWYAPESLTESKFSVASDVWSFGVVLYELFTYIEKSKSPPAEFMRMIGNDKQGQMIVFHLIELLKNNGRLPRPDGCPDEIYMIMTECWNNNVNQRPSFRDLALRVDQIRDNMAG

Turning to `CC(C)N(CCC(F)(F)F)C(=O)c1cc(-c2ncnc3[nH]ccc23)co1` [Compound 247], the figures for the inhibition constant Ki at JAK3 and at JAK-2 enzyme were 500 to 5000 nM and 100 to 500 nM, respectively.

For the molecule `C=CCN(C(=O)c1cc(-c2ncnc3[nH]ccc23)co1)[C@@H](C)c1ccccc1` [Compound 248], the Ki was 100 to 500 nM on JAK3 and under 100 nM at JAK-2 enzyme.

Take `O=C(c1cc(-c2ncnc3[nH]ccc23)co1)N(CCC(F)(F)F)CC1CCC1` [Compound 250]: the Ki was 100 to 500 nM at JAK3 and under 100 nM on JAK-2 enzyme.

Consider `O=C(c1cc(-c2ncnc3[nH]ccc23)co1)N(CC1CCC1)CC(F)(F)F` [Compound 251], for which the inhibition constant Ki at JAK3 and on JAK-2 enzyme was 100 to 500 nM in each case.

Take `CC(C)CN(CCC(F)(F)F)C(=O)c1cc(-c2ncnc3[nH]ccc23)co1` [Compound 252]: the inhibitory constant (Ki) on JAK3 and at JAK-2 enzyme was 100 to 500 nM each time.

For the molecule `C=CC(=O)c1c[nH]c2ncnc(-c3ccoc3)c12` [Compound 253], the Ki on JAK3 lay within 100 to 500 nM; at JAK-2 enzyme it was 500 to 5000 nM.

The Ki is the equilibrium dissociation constant of an inhibitor or competing ligand from its target.
